{
  "source": "patent US9056851B2",
  "about": "“Thiolactone antibiotics” (priority 2011, dated 2015)",
  "data": [
    {"molecular_target": "C171Q KasA acyl-enzyme mimic (Mycobacterium tuberculosis, UniProt P9WQD9, C171Q)", "format": "binding, M. tuberculosis", "values": [
      {"smiles": "C=C/C(C)=C/[C@@]1(C)SC(=O)C=C1O", "note": "[TLM2, 5R-(+)-3-Demethylthiolactomycin]", "Slow Onset": "No", "Slow or Rapid onset of binding to C171QKasA (words in Ki* column)": "Rapid"},
      {"smiles": "C=C/C(C)=C/[C@@]1(C)SC(=O)C(CC)=C1O", "note": "[TLM3, 5R-(+)-3-Ethylthiolactomycin]", "Slow Onset": "Yes", "Slow or Rapid onset of binding to C171QKasA (words in Ki* column)": "Slow,"},
      {"smiles": "C=C/C(C)=C/[C@@]1(C)SC(=O)C(CCC)=C1O", "note": "[TLM4, 5R-(+)-3-Propylthiolactomycin]", "Slow Onset": "Yes", "Slow or Rapid onset of binding to C171QKasA (words in Ki* column)": "Slow,"},
      {"smiles": "C=C/C(C)=C/[C@@]1(C)SC(=O)C(CCc2ccc(C)cc2)=C1O", "note": "[TLM5]", "Slow Onset": "No", "Slow or Rapid onset of binding to C171QKasA (words in Ki* column)": "Rapid"},
      {"smiles": "C=C/C(C)=C/[C@@]1(C)SC(=O)C(CCCCc2ccc(F)cc2)=C1O", "note": "[TLM6]", "Slow Onset": "No", "Slow or Rapid onset of binding to C171QKasA (words in Ki* column)": "Rapid"},
      {"smiles": "C=C/C(C)=C/[C@@]1(C)SC(=O)C(CCCCc2ccc(Cl)cc2)=C1O", "note": "[TLM7]", "Slow Onset": "No", "Slow or Rapid onset of binding to C171QKasA (words in Ki* column)": "Rapid"},
      {"smiles": "C=C/C(C)=C/[C@@]1(C)SC(=O)C(CCCCc2ccc(Br)cc2)=C1O", "note": "[TLM8]", "Slow Onset": "No", "Slow or Rapid onset of binding to C171QKasA (words in Ki* column)": "Rapid"},
      {"smiles": "C=C/C(C)=C/[C@@]1(C)SC(=O)C(CCCCc2ccc(-c3ccccc3)cc2)=C1O", "note": "[TLM9]", "Slow Onset": "No", "Slow or Rapid onset of binding to C171QKasA (words in Ki* column)": "Rapid"},
      {"smiles": "C=C/C(C)=C/[C@@]1(C)SC(=O)C(CCCN=[N+]=[N-])=C1O", "note": "[TLM10]", "Slow Onset": "Yes", "Slow or Rapid onset of binding to C171QKasA (words in Ki* column)": "Slow Onset"},
      {"smiles": "C=C/C(C)=C/[C@@]1(C)SC(=O)C(CCc2ccc(Cl)cc2)=C1O", "note": "[TLM31]", "Slow Onset": "No"},
      {"smiles": "C=C/C(C)=C/[C@@]1(C)SC(=O)C(CCCCN=[N+]=[N-])=C1O", "note": "[TLM32]", "Slow Onset": "Yes"},
      {"smiles": "C=C/C(C)=C/[C@@]1(C)SC(=O)C(CCCCn2cc(CNC(=O)[C@H](O)C(C)(C)CO)nn2)=C1O", "note": "[TLM33]", "Slow Onset": "No"},
      {"smiles": "C=C/C(C)=C/[C@@]1(C)SC(=O)C(CCCCn2cc(CNC(=O)c3ccc(NS(=O)(=O)c4ccc(F)cc4)cc3)nn2)=C1O", "note": "[TLM34]", "Slow Onset": "No"},
      {"smiles": "C=C/C(C)=C/[C@@]1(C)SC(=O)C(C(C)=O)=C1O", "note": "[TLM35]", "Slow Onset": "Yes"},
      {"smiles": "C=C/C(C)=C/[C@@]1(C)SC(=O)C(C(=O)C(F)(F)F)=C1O", "note": "[TLM36]", "Slow Onset": "Yes"},
      {"smiles": "C=C/C(C)=C/[C@@]1(C)SC(=O)C(C(=O)OC)=C1O", "note": "[TLM37]", "Slow Onset": "No"},
      {"smiles": "C=C/C(C)=C/[C@@]1(C)SC(=O)C(C(=O)CCC)=C1O", "note": "[TLM38]", "Slow Onset": "No"},
      {"smiles": "C=C/C(C)=C/[C@@]1(C)SC(=O)C(C(=O)c2ccccc2C(=O)O)=C1O", "note": "[TLM39]", "Slow Onset": "No"},
      {"smiles": "C=C/C(C)=C/[C@@]1(C)SC(=O)C=C1OCC(=O)NCCN=[N+]=[N-]", "note": "[TLM40]", "Slow Onset": "No"},
      {"smiles": "C=C/C(C)=C/[C@@]1(C)SC(=O)C(C(=O)CCCCCCCCCCCCCCC)=C1O", "note": "[TLM43]", "Slow Onset": "No"},
      {"smiles": "C=C/C(C)=C/[C@@]1(C)SC(=O)C(C(=O)CCCCc2ccc(-c3ccccc3)cc2)=C1O", "note": "[TLM45]", "Slow Onset": "No"},
      {"smiles": "C=C/C(C)=C/[C@@]1(C)SC(=O)C(C)=C1O", "note": "[TLM, 5R-(+)-Thiolactomycin]", "Slow Onset": "Yes", "Slow or Rapid onset of binding to C171QKasA (words in Ki* column)": "Slow,"}
    ]}
  ]
}
